In ChEMBL document CHEMBL1201862, “PubChem BioAssay data set” (2004):
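Tested at 5 concentrations; 48 h exposure; 96-well plates; endpoints linearly interpolated, else capped at highest concentration. GI50 = concentration required for 50% inhibition of growth.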 Active and inactive are the calls of the source. No stated cut-off is given here; in the data, active = GI50 up to about 1.1 µM and inactive = higher.

Key:
Assay in all cases: growth of human tumour cells (NCI), 48 h
MDA-MB-435 = system: MDA-MB-435
MDA-MB-231 = system: MDA-MB-231
MOLT-4 = system: MOLT-4
BT-549 = system: BT-549
786-0 = system: 786-0
HCT-15 = system: HCT-15
NCI-H460 = system: NCI-H460
UACC-257 = system: UACC-257
SNB-19 = system: SNB-19
IGROV-1 = system: IGROV-1
Malme-3M = system: Malme-3M
A498 = system: A498
T47D = system: T47D
ACHN = system: ACHN
Hs-578T = system: Hs-578T
SK-MEL-5 = system: SK-MEL-5
RXF 393 = system: RXF 393
M14 = system: M14
NCI-H522 = system: NCI-H522

Structure (SMILES)	GI50 (MDA-MB-435)	GI50 (MDA-MB-231)	GI50 (MOLT-4)	GI50 (BT-549)	GI50 (786-0)	GI50 (HCT-15) [µM]	GI50 (NCI-H460)	GI50 (UACC-257)	GI50 (SNB-19)	GI50 (IGROV-1)	GI50 (Malme-3M)	GI50 (A498)	GI50 (T47D)	GI50 (ACHN)	GI50 (Hs-578T)	GI50 (SK-MEL-5)	GI50 (RXF 393)	GI50 (M14)	GI50 (NCI-H522)
COc1ccc(CC/N=C2\OCc3ccccc32)cc1OC	43.2 µM (inactive)	61.8 µM (inactive)	50.4 µM (inactive)	> 100 µM (inactive)	45.3 µM (inactive)	38.8	45.5 µM (inactive)	> 100 µM (inactive)	> 100 µM (inactive)	67 µM (inactive)	56.8 µM (inactive)	> 100 µM (inactive)	27.5 µM (inactive)	52.5 µM (inactive)	67 µM (inactive)	43.3 µM (inactive)			
O=c1c2ccccc2nc(-c2ccc(Cl)cc2)n1O	26.5 µM (inactive)	> 100 µM (inactive)	17.9 µM (inactive)	27.3 µM (inactive)	22.2 µM (inactive)	9.55	11.1 µM (inactive)	24.9 µM (inactive)	25.2 µM (inactive)	2.19 µM (inactive)		53.7 µM (inactive)	> 100 µM (inactive)	22.5 µM (inactive)	76 µM (inactive)	29.9 µM (inactive)	26.7 µM (inactive)	26.4 µM (inactive)	15.3 µM (inactive)
CC1=NN(c2nc(N)nc(CCl)n2)C(C)(C)C1	34.8 µM (inactive)	29.3 µM (inactive)	19.5 µM (inactive)	26.7 µM (inactive)	5.68 µM (inactive)	21	17.2 µM (inactive)	51.9 µM (inactive)	> 61.9 µM (inactive)	4.41 µM (inactive)		30.6 µM (inactive)	45.6 µM (inactive)	10.3 µM (inactive)	21 µM (inactive)	19.8 µM (inactive)	> 56.8 µM (inactive)	30.7 µM (inactive)	1.39 µM (inactive)
Fc1cccc(F)c1C1SCC2=Nc3ccccc3CN21 (stereo unspecified)	> 100 µM (inactive)	> 100 µM (inactive)	74 µM (inactive)	98.6 µM (inactive)	32.4 µM (inactive)	> 100	71 µM (inactive)	60.3 µM (inactive)	44.1 µM (inactive)	42.5 µM (inactive)		> 100 µM (inactive)	49.7 µM (inactive)	33.7 µM (inactive)	25.4 µM (inactive)	31.4 µM (inactive)	23.9 µM (inactive)	91.2 µM (inactive)	
OC1CCC(COC(c2ccccc2)(c2ccccc2)c2ccccc2)O1 (stereo unspecified)	21.5 µM (inactive)	16.6 µM (inactive)	11.1 µM (inactive)	23.8 µM (inactive)	19.4 µM (inactive)	16.9	21 µM (inactive)	16.8 µM (inactive)	21.1 µM (inactive)	18.2 µM (inactive)	17.9 µM (inactive)	20.2 µM (inactive)	20.2 µM (inactive)	17 µM (inactive)	16.6 µM (inactive)	16.9 µM (inactive)		18.7 µM (inactive)	17.7 µM (inactive)
CC1=NN(c2nc(N)nc(/C(C#N)=C/c3ccncc3)n2)C(C)(C)C1	> 100 µM (inactive)	> 100 µM (inactive)	> 100 µM (inactive)	> 100 µM (inactive)	> 100 µM (inactive)	> 100	> 100 µM (inactive)	> 100 µM (inactive)	> 100 µM (inactive)	> 100 µM (inactive)		60.3 µM (inactive)	> 100 µM (inactive)	> 100 µM (inactive)	> 100 µM (inactive)	> 100 µM (inactive)	32 µM (inactive)	> 100 µM (inactive)	
C=CC(=C)CCC(Br)C(C)(C)Cl (stereo unspecified)	> 100 µM (inactive)	> 100 µM (inactive)	85.1 µM (inactive)	> 100 µM (inactive)	> 100 µM (inactive)	> 100	> 100 µM (inactive)	> 100 µM (inactive)	> 100 µM (inactive)	> 100 µM (inactive)	> 100 µM (inactive)		> 100 µM (inactive)	> 100 µM (inactive)	> 100 µM (inactive)	> 100 µM (inactive)	> 100 µM (inactive)	> 100 µM (inactive)	24.3 µM (inactive)
COc1cc(/C=C2\NC(=O)N(/C=C3\C(=O)Oc4ccccc4C3=O)C2=O)ccc1O	> 100 µM (inactive)	35.2 µM (inactive)	36.2 µM (inactive)	43 µM (inactive)	88.7 µM (inactive)	39.3	> 100 µM (inactive)	> 100 µM (inactive)	37.5 µM (inactive)	62.7 µM (inactive)		42.1 µM (inactive)	> 100 µM (inactive)	> 100 µM (inactive)	33.6 µM (inactive)	41 µM (inactive)	25.1 µM (inactive)	99.3 µM (inactive)	29.2 µM (inactive)
CC(=N)OC1CC2CCC1(C)C2(C)C (stereo unspecified)	> 100 µM (inactive)	> 100 µM (inactive)	> 100 µM (inactive)	> 100 µM (inactive)	> 100 µM (inactive)	> 100	> 100 µM (inactive)	> 100 µM (inactive)		> 100 µM (inactive)	> 100 µM (inactive)	> 100 µM (inactive)	> 100 µM (inactive)	> 100 µM (inactive)	> 100 µM (inactive)	> 100 µM (inactive)	> 100 µM (inactive)	> 100 µM (inactive)	> 100 µM (inactive)
Oc1[nH]c(Nc2ccc(F)c(Cl)c2)nc2ncnc1-2	> 100 µM (inactive)	> 100 µM (inactive)	7.29 µM (inactive)	> 100 µM (inactive)	82 µM (inactive)	> 100	> 100 µM (inactive)	> 100 µM (inactive)	> 100 µM (inactive)	> 100 µM (inactive)	> 100 µM (inactive)	> 100 µM (inactive)	> 100 µM (inactive)	> 100 µM (inactive)	29.6 µM (inactive)	> 100 µM (inactive)		> 100 µM (inactive)	> 100 µM (inactive)
COC(=O)c1ccc(OCc2ccc3nc(-c4ccccc4)c(Cl)nc3c2)cc1	74.8 µM (inactive)	23.2 µM (inactive)	91.6 µM (inactive)	> 100 µM (inactive)	21 µM (inactive)	> 100	> 100 µM (inactive)	> 100 µM (inactive)	92.5 µM (inactive)	85.5 µM (inactive)		> 100 µM (inactive)	> 100 µM (inactive)	48.8 µM (inactive)	30.1 µM (inactive)	76.6 µM (inactive)		> 100 µM (inactive)	11.8 µM (inactive)
CC(C)C/N=C(\N)N=C(N)N	> 100 µM (inactive)	> 100 µM (inactive)	> 100 µM (inactive)	> 100 µM (inactive)	> 100 µM (inactive)	> 100	> 100 µM (inactive)	> 100 µM (inactive)	> 100 µM (inactive)	> 100 µM (inactive)	> 100 µM (inactive)		> 100 µM (inactive)	> 100 µM (inactive)	> 100 µM (inactive)	> 100 µM (inactive)	> 100 µM (inactive)	> 100 µM (inactive)	> 100 µM (inactive)
